Entries after “also recorded” stand apart in the source; their conditions may differ.
How the values were obtained:
BCL6 reporter = BCL6 reporter GFP activation; format: cell-based, human; details: FIG. 6 Panel A
Description: FIGS. 5A to 5C illustrate the development of reporters for activation of cell death or pro-apoptotic pathways by the disinhibited BCL6 protein or the pro-apoptotic protein FOXO3A. FIG. 5A: The BCL6 reporter consists of an array of BCL6 binding sites taken from different pro-apoptotic genes including TP53, PUMA, BIM and others. These genes have the ability to kill cells when simply overexpressed (PMID:11463391). Ten base pairs on either side of the actual human BCL6 binding site are included to take advantage of the fact that transcriptional specificity is due to the concerted binding of proteins in an enhanceosome (PMID:9510247, 18206362).
(§1) Note that the higher concentrations lead to a reduction in activation of the reporter consistent with the “hook effect” characteristic of bifunctional molecules as they saturate both binding sites.(PMID: 8752278; PMID:21406691), in this case the BCL6 protein and the estrogen receptor. […] Panel C. […] Viability was measured using the PrestoBlue HS (resazurin) assay for viable cells (1:10 ratio in media and 1 h incubation).
FIGS. 5A to 5C provide examples of how one measures the effect of a TF-CIP to allow chemical optimization of linker and ligands. […] Thus, the reporter system is multiplexed and useful for defining and quantitating apoptotic responses in many different cell types. […]

Karpas 422 = experiment: Cell death / viability, PrestoBlue HS (resazurin) assay, Karpas 422; format: cell-based; details: FIG. 6 Panel B, ER-positive cells with amplified/rearranged BCL6, compared with BI3812
Experimental: as §1
(§2) These reporter systems and direct measures of cancer cell killing were used to assess the TF-CIP molecules made by rational design that are illustrated in FIG. 4. As shown in Panel A, addition of ER-TF-CIP6 activates GFP expression by the BCL reporter with an EC50 of about 1 to 10 micromolar. […] Note that the higher concentrations lead to a reduction in activation of the reporter consistent with the “hook effect” characteristic of bifunctional molecules as they saturate both binding sites. (PMID: 8752278; PMID:21406691), in this case the BCL6 protein and the estrogen receptor. […] Viability was measured using the PrestoBlue HS (resazurin) assay for viable cells (1:10 ratio in media and 1 h incubation).

HEK293 cells = experiment: Cell death / viability, PrestoBlue HS (resazurin) assay, HEK293; format: cell-based; details: FIG. 6 Panel C
Experimental: as §1, §2

[1] = tested on: ER-negative breast cancer cell lines; experiment: Cell death / viability, PrestoBlue HS (resazurin) assay, ER-negative breast cancer cell lines; format: cell-based; details: FIG. 6 Panels D and E; two ER-negative or low-ER breast cancer cell lines
Experimental: as §1, §2

Structure (SMILES): CNC(=O)COc1cc2cc(Nc3nc(N4CCC(C(=O)NCCOCCOCCNC(=O)CO/N=C5\CCC6C7CCc8cc(O)ccc8C7CC[C@]56C)CC4)ncc3Cl)cc(OC)c2n(C)c1=O (stereo partly drawn) [ER-TF-CIP6]
- potency in BCL6 reporter relative to BI3812 (BCL6 reporter; comparison with parent compound BI3812): substantially lower concentration than that of the parent compound
- EC50 (BCL6 reporter; Homo sapiens, read-out: EC50 of activation of GFP expression by the BCL reporter): 1 to 10 µM
- induction of cell death (Karpas 422): more effectively than B13812
- induction of cell death (Karpas 422; listed as ER-TFCIP6): more effectively than BI3812
- induction of cell death (HEK293 cells): induces cell death
- cell killing [1]: does not kill; also recorded: are not killed

— patent US20230304024A1, “Modulation of Gene Expression Via Transcription Factor-Chemically Induced Proximity (TF-CIP)” (The Board of Trustees of the Leland Stanford Junior …, priority 2020, published 2023)
